Test results as given in patent US8404696B2, “Quinazoline-2,4-dione derivative, and medical compositions for the prophylaxis and treatment of cranial nerve disease containing the same” (Shin Poong Pharmaceutical Co., Ltd., priority 2008, dated 2013).
In brackets after ≈: the same amount, converted by molar mass.

Assays:
thoracic aorta of rats = experiment: Relaxing effect on thoracic aorta contracted by phenylephrine (organ bath); set-up: species or system rats of SD species; conditions: for Relaxation percentage (Mean ± standard deviation): n = 3
Method in brief: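 Thoracic aortic rings (2 mm) from ether-anesthetized male SD rats (250-300 g) were mounted in Krebs buffer gassed with 95% O2/5% CO2 and equilibrated at 1.0 g basal tension for 90 min. After stable contraction with phenylephrine (0.5 μM), compounds were added and relaxation recorded.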

mouse brain cells = experiment: Inhibitory effect on ROS production in brain cells (DCF-DA, NMDA-induced); type: cell-based
SH-SY5Y cells = experiment: Inhibitory effect on ZnSO4-mediated cytotoxicity (MTT assay); type: cell-based, humans; conditions: compound 50 μg/ml; 600 μM zinc sulfate, 24 hours
Experimental: SH-SY5Y cells were cultured with 3×10^4 cell concentration in 96 well plates, and the compound (50 μg/ml) was treated. After 30 minutes, 600 μM of zinc sulfate was treated to induce toxicity for 24 hours and survival rate of cells was measured by MTT assay.

[1] = tested on: middle cerebral artery occlusion (MCAO) model; experiment: Anti-stroke effect in middle cerebral artery occlusion (MCAO) model, oral administration before inducing stroke; type: in vivo, rats of SD species; conditions: 100 mg/kg po; for Infarcted volume (Mean ± standard deviation): negative control 0.45 ± 0.03
[2] = tested on: superoxide dismutase (SOD); experiment: Increase of superoxide dismutase (SOD) activity in mouse brain cells; type: cell-based; conditions: 100 μg/ml
Experimental: ROS inhibitory effect of compounds was represented to the dose suppressing 50% of production of reactive oxygen compared to control. […] The activity of superoxide dismutase (SOD) was measured by using a kit acquired in Sigma.

[3] = tested on: middle cerebral artery occlusion (MCAO) model; experiment: Anti-stroke effect in MCAO model, intravenous administration around reperfusion; type: in vivo, rats of SD species; conditions: 5 mg/kg iv; for Infarcted volume (Mean ± standard deviation): negative control 0.43 ± 0.02
Experimental: Male rats of SD species with 290-300 g of body weight were used as laboratory animals, and 8 rats were used in each experiment group. The operation was performed by using the method of Nagasawa et al. (Nagasawa, H. and Gogure, K. 1989, Stroke, 20: 1037-1043).
The rats were anesthetized by Ketamine, and the operation was performed as body temperature was maintained using thermoplate. The cerebral region was incised following the median line of the neck, and the left common carotid artery, internal carotid artery and external carotid artery were separated, taking care not to damage the vagus nerve. The common carotid artery and external carotid artery were ligatured, and a probe was inserted into the internal carotid artery from the branch point of the internal and external carotid arteries. And then the fundus of the middle cerebral artery was occluded by ligature just on the upper side of the insertion region. A probe was made by heating the end of a 4-0 nylon surgical suture (Dafilon, B. Braun, Germany) and cut into 30 mm. The 7-9 mm end of the probe was coated with the mixture of silcon (Xantopren VL plus, Heraeus Kulzer, Germany) and curing agent (Optosyl-Xantopren VL plus, Heraeus Kulzer, Germany), and the thickness was to be 0.3-0.4 mm. After the intervention of the probe insertion and the animals came out of the anesthetic, individuals in which neurological deficit symptom (right direction circling) was observed were included in the ischemia group.
After 3 hours of ischemia, the inserted probe was removed to reperfuse blood circulation. The brain was extracted after 24 hours, followed by histological staining.
The compound 3 was administered at a programmed time before or after insertion of the probe with oral or intravenous administration. TTC (2,3,5-triphenyltetrazolium chloride) staining was performed to estimate the damage of brain tissue by ischemia. Procephalon of the extracted brain was sliced into 2 mm of sequential slice by using brain matrix (ASI instrument, Warren, Mich., USA). The slices were put into 2% of TTC solution and incubated at 37° C. for 60 minutes for staining. The TTC stained brain slice was fixed in 10% of formalin buffer and the front of the each slice was photographed with a digital camera. The infarcted areas (cm^2) that were not stained with deep red in each acquired image were measured using an image analyzer, and total infarcted volume (cm^3) was calculated by multiplying the thickness of the slices
In the experiment, the probe was removed after stoke induction so that circulation was reperfused.

[4] = treatment time 0 (right before inducing ischemic stroke)
[5] = treatment time 1 (an hour before inducing ischemic stroke)
[6] = treatment time 0.5 after reperfusion
[7] = treatment time 1 after reperfusion
[8] = treatment time 2 after reperfusion
[9] = treatment time 4 after reperfusion
[10] = treatment time 6 after reperfusion
[11] = treatment time 12 (hours) after reperfusion
[12] = treatment time 18 after reperfusion
[13] = treatment time 24 after reperfusion
[14] = treatment time −0.5 after reperfusion

Q: With CC(=O)N(CCCCNCCCn1c(=O)[nH]c2ccccc2c1=O)CCCn1c(=O)[nH]c2ccccc2c1=O [Compound 3, N-[3-(2,4-dioxo-1,4-dihydro-2H-quinazolin-3-yl)propyl]-N-{4-[3-(2,4-dioxo-1,4-dihydro-2H-quinazolin-3-yl)propylamino]butyl}acetamide] as the molecule, how does the “Relaxation percentage (Mean ± standard deviation)” value (thoracic aorta of rats; 50 μg/mL, phenylephrine 0.5 μM) read?
A: 16.2 ± 4.4%

Q: What about the “Relaxation percentage (Mean ± standard deviation)” value (thoracic aorta of rats; 100 μg/mL, phenylephrine 0.5 μM) of the same molecule?
A: 44.2 ± 8.5%

Q: And the “Relaxation percentage (Mean ± standard deviation)” value (thoracic aorta of rats; 200 μg/mL, phenylephrine 0.5 μM)?
A: 65.6 ± 7.1%

Q: And the “Relaxation of thoracic aorta contracted by phenylephrine, dose dependence” value (thoracic aorta of rats; 50, 100 and 200 μg/mL)?
A: dose-dependently relaxed the thoracic aorta of rats contracted by phenylephrine

Q: And the inhibition at 67 µg/mL (thoracic aorta of rats; Rattus norvegicus, 67 μg/mL, phenylephrine 0.5 μM, mean n = 3, read-out: Relaxation percentage)?
A: 27.4%

Q: And the “Suppression of oxidative stress induced by NMDA (DCF fluorescence)” value (mouse brain cells; 125 μg/ml and 250 μg/ml, 300 μM NMDA, 24 hours, FIG. 2)?
A: suppressed the oxidative stress induced by NMDA of nerve cells in a dose-dependent manner

Q: And the IC50 (mouse brain cells; 24 h, dose suppressing 50% of production of reactive oxygen compared to control, mouse brain cells, read-out: ROS inhibitory effect ID50)?
A: 108 ± 27.2 µg/mL (≈ 203 µM)

Q: And the “inhibitory percentage, zinc-induced toxicity” value (SH-SY5Y cells)?
A: 17.6 ± 3.5%

Q: And the “Inhibitory percentage compared to negative control” value [1, 4]?
A: 69.8%

Q: And the “Infarcted volume (Mean ± standard deviation)” value [1, 4]?
A: 0.14 ± 0.02 cm^3

Q: What about the “Inhibitory percentage compared to negative control” value [1, 5] of the same molecule?
A: 22.3%

Q: What about the “Infarcted volume (Mean ± standard deviation)” value [1, 5] of the same molecule?
A: 0.35 ± 0.07 cm^3

Q: What about the “Increase of SOD activity, compared to control” value [2] of the same molecule?
A: 3.2 ± 2.7

Q: What about the “Inhibitory percentage compared to negative control” value [3, 6] of the same molecule?
A: 72.3%

Q: And the “Infarcted volume (Mean ± standard deviation)” value [3, 6]?
A: 0.12 ± 0.03 cm^3

Q: And the “Inhibitory percentage compared to negative control” value [3, 7]?
A: 53.8%

Q: And the “Infarcted volume (Mean ± standard deviation)” value [3, 7]?
A: 0.20 ± 0.04 cm^3

Q: And the “Inhibitory percentage compared to negative control” value [3, 8]?
A: 49.9%

Q: And the “Infarcted volume (Mean ± standard deviation)” value [3, 8]?
A: 0.22 ± 0.02 cm^3

Q: And the “Inhibitory percentage compared to negative control” value [3, 9]?
A: 47.9%

Q: And the “Infarcted volume (Mean ± standard deviation)” value [3, 9]?
A: 0.22 ± 0.09 cm^3

Q: And the “Inhibitory percentage compared to negative control” value [3, 10]?
A: 60.9%

Q: And the “Infarcted volume (Mean ± standard deviation)” value [3, 10]?
A: 0.17 ± 0.04 cm^3

Q: And the “Inhibitory percentage compared to negative control” value [3, 11]?
A: 62.7%

Q: What about the “Infarcted volume (Mean ± standard deviation)” value [3, 11] of the same molecule?
A: 0.16 ± 0.04 cm^3

Q: And the “Inhibitory percentage compared to negative control” value [3, 12]?
A: 13.5%

Q: And the “Infarcted volume (Mean ± standard deviation)” value [3, 12]?
A: 0.37 ± 0.03 cm^3

Q: What about the “Inhibitory percentage compared to negative control” value [3, 13] of the same molecule?
A: 16.3%

Q: And the “Infarcted volume (Mean ± standard deviation)” value [3, 13]?
A: 0.36 ± 0.08 cm^3

Q: And the “Inhibitory percentage compared to negative control” value [3, 14]?
A: 67.2%

Q: And the “Infarcted volume (Mean ± standard deviation)” value [3, 14]?
A: 0.14 ± 0.03 cm^3
